# Measured values published in ChEMBL document CHEMBL1201862, “PubChem BioAssay data set” (2004).
# Activity calls are given as the source filed them.
# Assays:
# Insulin-degrading enzyme = biological target: T1, Insulin-degrading enzyme (Homo sapiens, UniProt P14735); experiment: Dose Response: Fluorescence polarization-based cell-based high throughput dose response assay for inhibitors of insulin-degrading enzyme (IDE). [Related pubchem assays: 434962 (Primary screen (IDE inhibitors in singlicate)), 449730 (Counterscreen (Cytotoxicity in triplicate)), 435028 (Confirmation (IDE inhibitors in triplicate)), 434984 (Summary …; assay type: functional
# T1 sequence (P14735 whole entry): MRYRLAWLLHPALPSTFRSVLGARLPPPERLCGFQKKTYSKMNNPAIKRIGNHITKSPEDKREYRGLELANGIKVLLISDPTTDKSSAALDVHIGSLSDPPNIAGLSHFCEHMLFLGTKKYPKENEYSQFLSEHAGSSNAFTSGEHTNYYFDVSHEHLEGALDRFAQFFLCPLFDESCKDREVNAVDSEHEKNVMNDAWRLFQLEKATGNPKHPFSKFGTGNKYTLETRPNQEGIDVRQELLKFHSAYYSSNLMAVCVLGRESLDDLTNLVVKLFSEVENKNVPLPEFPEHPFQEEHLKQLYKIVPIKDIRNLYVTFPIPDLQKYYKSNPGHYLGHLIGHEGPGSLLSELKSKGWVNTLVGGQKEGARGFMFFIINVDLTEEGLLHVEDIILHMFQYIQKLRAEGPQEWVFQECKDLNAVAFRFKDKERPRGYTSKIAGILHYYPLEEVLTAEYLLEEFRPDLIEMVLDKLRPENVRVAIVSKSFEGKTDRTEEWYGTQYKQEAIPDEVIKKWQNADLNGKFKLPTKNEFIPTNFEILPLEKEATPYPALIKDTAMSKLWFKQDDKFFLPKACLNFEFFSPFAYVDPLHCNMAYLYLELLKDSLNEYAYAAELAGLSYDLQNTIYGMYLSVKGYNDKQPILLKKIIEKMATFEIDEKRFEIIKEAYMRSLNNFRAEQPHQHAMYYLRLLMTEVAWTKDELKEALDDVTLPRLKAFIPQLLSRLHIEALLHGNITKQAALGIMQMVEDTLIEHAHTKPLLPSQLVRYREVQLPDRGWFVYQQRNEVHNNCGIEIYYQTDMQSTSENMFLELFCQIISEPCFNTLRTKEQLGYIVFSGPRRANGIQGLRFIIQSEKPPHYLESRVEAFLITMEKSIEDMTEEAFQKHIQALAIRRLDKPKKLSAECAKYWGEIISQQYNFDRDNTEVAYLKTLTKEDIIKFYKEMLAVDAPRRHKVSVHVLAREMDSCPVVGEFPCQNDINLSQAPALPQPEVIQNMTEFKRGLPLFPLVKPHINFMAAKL
# Phosphomannomutase 2 = biological target: T2, Phosphomannomutase 2 (Homo sapiens, UniProt O15305); experiment: Counter screen SAR assay for PMM2 inhibitors via a fluorescence intensity assay. [Related pubchem assays (depositor defined):AID1545, AID1574]
# T2 sequence (O15305 whole entry): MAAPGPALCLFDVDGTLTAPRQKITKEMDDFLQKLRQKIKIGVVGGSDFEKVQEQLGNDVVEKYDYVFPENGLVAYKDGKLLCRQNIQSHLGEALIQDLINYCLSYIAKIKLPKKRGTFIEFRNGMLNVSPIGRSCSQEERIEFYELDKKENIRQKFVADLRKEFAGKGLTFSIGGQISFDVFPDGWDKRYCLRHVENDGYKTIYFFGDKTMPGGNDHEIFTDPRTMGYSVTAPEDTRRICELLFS
# [1] = biological target: Eukaryotic translation initiation factor 4E (Mus musculus, UniProt P63073); experiment: eIF4E–eIF4G protein interaction inhibitors, dose response, biochemical, TR-FRET (AID 855); assay type: functional;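 further: potency for disrupting eIF4E binding to eIF4GI seen as loss of FRET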
# Chain of Eukaryotic translation initiation factor 4E (P63073 whole entry): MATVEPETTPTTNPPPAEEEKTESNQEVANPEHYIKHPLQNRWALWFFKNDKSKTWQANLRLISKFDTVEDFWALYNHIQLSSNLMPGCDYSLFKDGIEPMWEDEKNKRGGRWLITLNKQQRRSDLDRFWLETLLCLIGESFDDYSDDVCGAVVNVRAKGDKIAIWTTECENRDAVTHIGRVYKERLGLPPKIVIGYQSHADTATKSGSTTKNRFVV
# [2] = Counterscreen for IDE inhibitors: Luminescence-based cell-based high throughput dose response assay to identify compounds that are cytotoxic to HEK cells. [Related pubchem assays: 434962 (Primary screen (IDE inhibitors in singlicate)), 449730 (Counterscreen (Cytotoxicity in triplicate)), 435028 (Confirmation (IDE inhibitors in triplicate)) …; assay type: functional; conditions: HEK293
# [3] = biological target: Phosphoethanolamine/phosphocholine phosphatase (Homo sapiens, UniProt Q8TCT1); experiment: SAR assay for compounds that inhibit PHOSPHO1. [Related pubchem assays (depositor defined):AID1545, AID1565, AID1574]
# Chain of Phosphoethanolamine/phosphocholine phosphatase (Q8TCT1 whole entry): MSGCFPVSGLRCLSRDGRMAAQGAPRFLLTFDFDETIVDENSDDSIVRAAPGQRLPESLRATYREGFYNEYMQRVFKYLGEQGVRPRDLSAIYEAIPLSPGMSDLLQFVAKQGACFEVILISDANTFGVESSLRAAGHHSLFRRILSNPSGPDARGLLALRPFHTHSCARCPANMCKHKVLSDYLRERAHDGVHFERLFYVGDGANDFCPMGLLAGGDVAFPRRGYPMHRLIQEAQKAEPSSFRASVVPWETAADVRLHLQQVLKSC
# [4] = biological target: T3, Mannose-6-phosphate isomerase (Homo sapiens, UniProt P34949); experiment: human PMI inhibitors, high substrate, primary screen, biochemical, fluorescence intensity, high mannose 6-phosphate (AID 1220)
# T3 sequence (P34949 whole entry): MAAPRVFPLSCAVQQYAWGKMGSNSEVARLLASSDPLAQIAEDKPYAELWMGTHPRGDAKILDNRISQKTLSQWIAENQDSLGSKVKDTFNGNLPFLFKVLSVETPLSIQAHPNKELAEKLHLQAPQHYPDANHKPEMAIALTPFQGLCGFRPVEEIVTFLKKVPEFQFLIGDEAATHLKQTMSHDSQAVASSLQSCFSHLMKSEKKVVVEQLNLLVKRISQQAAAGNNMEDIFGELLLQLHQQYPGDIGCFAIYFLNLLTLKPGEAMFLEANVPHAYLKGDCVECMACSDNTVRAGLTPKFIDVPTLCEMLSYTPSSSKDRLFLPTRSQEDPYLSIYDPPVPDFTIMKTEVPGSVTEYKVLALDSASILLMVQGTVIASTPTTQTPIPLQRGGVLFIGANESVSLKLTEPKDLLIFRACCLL
# Procathepsin L = Procathepsin L (Homo sapiens, UniProt P07711)
# Chain of Procathepsin L (P07711 whole entry): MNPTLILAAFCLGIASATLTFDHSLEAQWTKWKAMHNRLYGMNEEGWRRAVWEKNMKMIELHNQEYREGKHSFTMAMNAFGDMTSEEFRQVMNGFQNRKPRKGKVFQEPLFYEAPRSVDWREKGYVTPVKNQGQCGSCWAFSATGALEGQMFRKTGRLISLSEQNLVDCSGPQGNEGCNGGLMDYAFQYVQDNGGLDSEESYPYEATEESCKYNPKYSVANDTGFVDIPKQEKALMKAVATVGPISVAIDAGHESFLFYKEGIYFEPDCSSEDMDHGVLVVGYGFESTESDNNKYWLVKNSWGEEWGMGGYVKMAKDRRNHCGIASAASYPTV
# Large T antigen = Large T antigen (Simian virus 40, UniProt P03070); assay type: functional, Betapolyomavirus macacae;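 further: Confirmatory-stage PubChem screen for compounds that inhibit SV40 T antigen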
# Chain of Large T antigen (P03070 whole entry): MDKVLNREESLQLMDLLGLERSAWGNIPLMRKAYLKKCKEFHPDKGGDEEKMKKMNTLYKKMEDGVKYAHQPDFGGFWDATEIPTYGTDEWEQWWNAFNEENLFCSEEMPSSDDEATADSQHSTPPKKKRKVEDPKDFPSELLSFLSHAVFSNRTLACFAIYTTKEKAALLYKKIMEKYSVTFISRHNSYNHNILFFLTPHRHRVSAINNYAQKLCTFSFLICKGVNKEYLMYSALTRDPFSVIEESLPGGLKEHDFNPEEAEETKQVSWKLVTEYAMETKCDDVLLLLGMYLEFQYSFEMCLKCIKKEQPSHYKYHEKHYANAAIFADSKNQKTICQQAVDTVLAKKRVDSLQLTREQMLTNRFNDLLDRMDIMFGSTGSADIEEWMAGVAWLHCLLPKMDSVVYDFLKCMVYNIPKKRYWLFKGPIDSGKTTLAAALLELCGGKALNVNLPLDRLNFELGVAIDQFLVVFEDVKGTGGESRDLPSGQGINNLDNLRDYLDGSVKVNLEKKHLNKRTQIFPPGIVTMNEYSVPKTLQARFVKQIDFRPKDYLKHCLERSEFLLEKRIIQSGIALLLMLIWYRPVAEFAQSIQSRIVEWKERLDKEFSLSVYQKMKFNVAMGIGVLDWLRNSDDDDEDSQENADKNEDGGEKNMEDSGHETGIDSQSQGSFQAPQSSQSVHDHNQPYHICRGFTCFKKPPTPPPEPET
# [5] = biological target: T3, Mannose-6-phosphate isomerase; experiment: inhibitors of human PMI, primary screen, biochemical, fluorescence intensity, coupled assay (AID 1209)
# Aspartyl aminopeptidase = biological target: T4, Aspartyl aminopeptidase (Plasmodium falciparum 3D7, UniProt Q8I2J3)
# T4 sequence (Q8I2J3 whole entry): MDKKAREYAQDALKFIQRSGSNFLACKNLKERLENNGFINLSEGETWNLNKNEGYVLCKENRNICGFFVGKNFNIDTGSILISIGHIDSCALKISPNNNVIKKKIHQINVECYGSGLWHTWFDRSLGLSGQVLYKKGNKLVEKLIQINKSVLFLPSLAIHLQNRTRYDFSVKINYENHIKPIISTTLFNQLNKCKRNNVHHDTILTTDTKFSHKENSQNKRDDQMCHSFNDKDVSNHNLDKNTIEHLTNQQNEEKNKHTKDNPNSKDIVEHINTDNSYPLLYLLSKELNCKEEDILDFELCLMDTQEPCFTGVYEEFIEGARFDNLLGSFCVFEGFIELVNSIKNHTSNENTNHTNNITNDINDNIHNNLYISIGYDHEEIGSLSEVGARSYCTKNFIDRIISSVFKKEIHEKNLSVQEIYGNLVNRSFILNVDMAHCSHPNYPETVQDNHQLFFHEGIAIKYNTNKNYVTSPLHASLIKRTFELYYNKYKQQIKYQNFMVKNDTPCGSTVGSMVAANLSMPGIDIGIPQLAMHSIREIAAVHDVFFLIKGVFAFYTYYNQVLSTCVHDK
# [6] = biological target: T5, Alkaline phosphatase, tissue-nonspecific isozyme (Homo sapiens, UniProt P05186); experiment: human TNAP enzyme inhibitors, SAR follow-up, biochemical, luminescent, dose response (AID 1056)
# T5 sequence (P05186 whole entry): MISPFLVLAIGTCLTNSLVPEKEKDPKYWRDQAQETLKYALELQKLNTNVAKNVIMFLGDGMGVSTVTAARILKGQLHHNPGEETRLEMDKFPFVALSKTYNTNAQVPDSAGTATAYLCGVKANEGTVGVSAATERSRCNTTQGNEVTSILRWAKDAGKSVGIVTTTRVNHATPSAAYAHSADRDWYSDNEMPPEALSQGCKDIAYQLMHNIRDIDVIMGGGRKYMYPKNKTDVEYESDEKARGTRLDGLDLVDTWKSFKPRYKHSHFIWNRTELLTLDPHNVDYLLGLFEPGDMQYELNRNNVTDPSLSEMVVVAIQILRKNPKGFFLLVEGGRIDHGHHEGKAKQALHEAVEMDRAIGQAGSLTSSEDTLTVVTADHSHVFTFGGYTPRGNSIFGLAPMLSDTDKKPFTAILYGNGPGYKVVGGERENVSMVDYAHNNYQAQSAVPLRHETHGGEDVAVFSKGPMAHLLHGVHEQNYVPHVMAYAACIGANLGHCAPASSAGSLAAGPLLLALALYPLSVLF
# [7] = cytotoxicity toward NIH3T3 fibroblasts, dose response, counter-screen, cell-based, ATP luminescence, mouse fibroblasts (AID 2010); assay type: functional;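 further: cells exposed to compound for about 90 hours before reading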
# [8] = inhibitors of intracellular T. cruzi replication, confirmation, NIH3T3 host cells, beta-gal luminescence (AID 2044); assay type: functional, cell-based;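 further: intracellular parasites grown in NIH/3T3 mouse fibroblasts as host cells; luminescent beta-galactosidase reporter signal from transgenic T. cruzi replicating inside host cells; inhibitors lower the luminescence signal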
# [9] = biological target: T3, Mannose-6-phosphate isomerase; experiment: PMI enzyme inhibitors, confirmation, biochemical, fluorescence intensity (AID 1535)
smiles,measurement,setting,value
Cc1ccc(-n2sc3ccccc3c2=O)cc1S(=O)(=O)N1CCCCC1,IC50,Insulin-degrading enzyme,4.05 µM (active)
same,IC50,Phosphomannomutase 2,14.6 µM (active)
same,IC50,[1],1.93 µM (active)
same,IC50,[2],10.5 µM (not active)
same,IC50,[3],1.84 µM (inactive)
same,IC50,[4],> 50 µM (not active)
same,IC50,Procathepsin L,> 59.6 µM (not active)
same,IC50,Large T antigen,26.1 µM (active)
same,IC50,[5],> 50 µM (not active)
same,IC50,Aspartyl aminopeptidase,4.28 µM (active)
same,IC50,[6],> 100 µM (inactive)
same,EC50,[7],> 60 µM (not active)
same,EC50,[8],0.89 µM (active)
same,IC50,[9],3.06 µM (active)
